Laboratory results from patent publication US20170355705A1 (GlaxoSmithKline Intellectual Property (No.2) Limited, priority 2014, published 2017).

Target: T1, SIRT1 (Homo sapiens, UniProt Q96EB6)
T1 sequence (Q96EB6 1-747): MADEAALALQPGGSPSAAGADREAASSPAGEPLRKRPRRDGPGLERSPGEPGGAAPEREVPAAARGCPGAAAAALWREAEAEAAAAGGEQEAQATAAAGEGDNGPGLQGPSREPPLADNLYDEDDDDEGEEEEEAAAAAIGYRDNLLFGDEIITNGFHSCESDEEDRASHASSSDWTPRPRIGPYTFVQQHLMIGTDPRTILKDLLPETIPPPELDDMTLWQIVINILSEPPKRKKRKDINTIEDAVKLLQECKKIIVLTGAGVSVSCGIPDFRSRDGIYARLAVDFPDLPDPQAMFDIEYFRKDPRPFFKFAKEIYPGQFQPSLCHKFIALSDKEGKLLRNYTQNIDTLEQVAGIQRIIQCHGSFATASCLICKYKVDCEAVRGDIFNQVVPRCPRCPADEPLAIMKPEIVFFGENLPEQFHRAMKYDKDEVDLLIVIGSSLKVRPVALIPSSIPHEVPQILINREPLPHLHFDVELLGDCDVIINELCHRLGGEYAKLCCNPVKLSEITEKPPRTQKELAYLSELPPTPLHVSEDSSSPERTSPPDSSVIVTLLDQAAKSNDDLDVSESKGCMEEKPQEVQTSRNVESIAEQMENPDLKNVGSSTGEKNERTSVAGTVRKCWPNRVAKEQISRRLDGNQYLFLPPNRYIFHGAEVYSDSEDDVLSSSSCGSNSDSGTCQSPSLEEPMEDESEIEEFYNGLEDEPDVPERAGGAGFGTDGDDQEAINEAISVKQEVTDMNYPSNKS
Assay: Trp mass spectrometry assay of SIRT1 activity (EC1.5, percent maximum activation)
Assay type: biochemical
Conditions: Trp mass spectrometry assay; for TRP Activity (EC1.5): EC1.5 = concentration giving 150% activation of SIRT1
From the text: Mass spectrometry based assays were used to identify modulators of SIRT1 activity. […] The peptide was labeled with the fluorophore 5TMR (excitation 540 nm/emission 580 nm) at the C-terminus. The sequence of the peptide substrate was based on p53 with several modifications. In addition, the methionine residue naturally present in the sequence was replaced with the norleucine because the methionine may be susceptible to oxidation during synthesis and purification.
The Trp mass spectrometry assay was conducted as follows. […] The SIRT1 protein was obtained by cloning the SirT1 gene into a T7-promoter containing vector, which was then expressed in BL21(DE3) bacterial cells and purified as described in further detail below. Test compound was added at varying concentrations to this reaction mixture and the resulting reactions were monitored. After the 25 minute incubation with SIRT1, 10 μL of 10% formic acid was added to stop the reaction. The resulting reactions were sealed and frozen for later mass spec analysis. The relative SIRT1 activity was then determined by measuring the amount of O-acetyl-ADP-ribose (OAADPR) formed (or, alternatively, the amount of deacetylated Trp peptide generated) by the NAD-dependent sirtuin deacetylation reaction in the presence of varying concentrations of the test compound versus control reactions lacking the test compound. The degree to which the test agent activated deacetylation by SIRT1 was expressed as EC1.5 (i.e., the concentration of compound required to increase SIRT1 activity by 50% over the control lacking test compound), and Percent Maximum Activation (i.e., the maximum activity relative to control (100%) obtained for the test compound).
This time point was the same as that used for test compounds and, within the linear range, the endpoint represents a change in velocity.
For the above assay, SIRT1 protein was expressed and purified as follows. The SirT1 gene was cloned into a T7-promoter containing vector and transformed into BL21(DE3). The protein was expressed by induction with 1 mM IPTG as an N-terminal His-tag fusion protein at 18° C. overnight and harvested at 30,000×g. Cells were lysed with lysozyme in lysis buffer (50 mM Tris-HCl, 2 mM Tris[2-carboxyethyl]phosphine (TCEP), 10 μM ZnCl2, 200 mM NaCl) and further treated with sonication for 10 min for complete lysis. The protein was purified over a Ni-NTA column (Amersham) and fractions containing pure protein were pooled, concentrated and run over a sizing column (Sephadex S200 26/60 global). The peak containing soluble protein was collected and run on an Ion-exchange column (MonoQ). Gradient elution (200 mM-500 mM NaCl) yielded pure protein. This protein was concentrated and dialyzed against dialysis buffer (20 mM Tris-HCl, 2 mM TCEP) overnight. The protein was aliquoted and frozen at −80° C. until further use.
“NT” means not tested; “ND” means not determinable.

[1] = percent maximum activation of SIRT1
[2] = 0.5 μM peptide substrate, 120 μM βNAD+, 10 nM SIRT1, 25 minutes at 25° C.

TRP Activity (EC1.5)	TRP MAX RESP (percent maximum fold activation) [1]	TRP Activity (EC1.5, concentration of test compound that results in 150% activation of SIRT1) [2]	TRP MAX RESP (percent maximum fold activation) [2]	Structure (SMILES)
A (EC1.5<1 μM)	A (Fold activation ≧150%)			Cl.O=C(Nc1ccnc(OC[C@@H](O)CO)c1)N1c2nc(-c3cccc(C(F)(F)F)c3)c(Cl)cc2N2CC[C@H]1C2 [Example 58, (4S)-8-chloro-N-(2-((S)-2,3-dihydroxypropoxy)pyridin-4-yl)-7-(3-(trifluoromethyl)phenyl)-3,4-dihydro-1,4-methanopyrido[2,3-b][1,4]diazepine-5(2H)-carboxamide, Hydrochloride]
C (EC1.5>25 μM)	B (Fold Activation <150%)			Cc1ccc(-c2nc3c(cc2C(F)(F)F)N2CC[C@@H](C2)N3C(=O)Nc2cccnc2)cn1 [Example 1, (4S)-7-(6-methylpyridin-3-yl)-N-(pyridin-3-yl)-8-(trifluoromethyl)-3,4-dihydro-1,4-methanopyrido[2,3-b][1,4]diazepine-5(2H)-carboxamide]
B (EC1.5 1-25 μM)	A (Fold activation ≧150%)			COc1cc(-c2ccc3c(n2)N(C(=O)Nc2cnccn2)[C@H]2CCN3C2)cc(C)n1 [Example 142, (4S)-7-(2-methoxy-6-methylpyridin-4-yl)-N-(pyrazin-2-yl)-3,4-dihydro-1,4-methanopyrido[2,3-b][1,4]diazepine-5(2H)-carboxamide]
A (EC1.5<1 μM)	A (Fold activation ≧150%)			O=C(Nc1ccnc(OCCCO)n1)N1c2nc(-c3cccc(C(F)(F)F)c3)c(Cl)cc2N2CC[C@H]1C2 [Example 42, (4S)-8-chloro-N-(2-(3-hydroxypropoxy)pyrimidin-4-yl)-7-(3-(trifluoromethyl)phenyl)-3,4-dihydro-1,4-methanopyrido[2,3-b][1,4]diazepine-5(2H)-carboxamide]
		C (EC1.5>25 μM)	B (Fold Activation <150%)	N#Cc1ccc(-c2ccc3c(n2)N(C(=O)Nc2cnccn2)[C@H]2CCN3C2)cn1 [Example 219, (4S)-7-(6-cyanopyridin-3-yl)-N-(pyrazin-2-yl)-3,4-dihydro-1,4-methanopyrido[2,3-b][1,4]diazepine-5(2H)-carboxamide]
C (EC1.5>25 μM)	B (Fold Activation <150%)			Cc1cc(-c2ccc3c(n2)N(C(=O)N[C@H](C)c2ccccn2)[C@H]2CCN3C2)ccn1 [Example 169, (4S)-7-(2-methylpyridin-4-yl)-N-((R)-1-(pyridin-2-yl)ethyl)-3,4-dihydro-1,4-methanopyrido[2,3-b][1,4]diazepine-5(2H)-carboxamide]
B (EC1.5 1-25 μM)	A (Fold activation ≧150%)			Cc1cc(-c2nc3c(cc2C)N2CC[C@@H](C2)N3C(=O)Nc2ccccn2)ccn1 [Example 36, (4S)-8-methyl-7-(2-methylpyridin-4-yl)-N-(pyridin-2-yl)-3,4-dihydro-1,4-methanopyrido[2,3-b][1,4]diazepine-5(2H)-carboxamide]
		A (EC1.5<1 μM)	A (Fold activation ≧150%)	Cc1cc(-c2ccc3c(n2)N(C(=O)Nc2cc(N4C[C@@H](C)O[C@@H](C)C4)ccn2)[C@H]2CCN3C2)ccn1 [Example 357, (4S)-N-(4-((2S,6R)-2,6-dimethylmorpholino)pyridin-2-yl)-7-(2-methylpyridin-4-yl)-3,4-dihydro-1,4-methanopyrido[2,3-b][1,4]diazepine-5(2H)-carboxamide]
		B (EC1.5 1-25 μM)	A (Fold activation ≧150%)	Cc1ccc(-c2ccc3c(n2)N(C(=O)Nc2cccc4cnccc24)[C@H]2CCN3C2)cn1 [Example 209, (4S)-N-(isoquinolin-5-yl)-7-(6-methylpyridin-3-yl)-3,4-dihydro-1,4-methanopyrido[2,3-b][1,4]diazepine-5(2H)-carboxamide]
			A (Fold activation ≧150%)	Cc1cc(-c2ccc3c(n2)N(C(=O)Nc2cc(N4CCCC4)ccn2)[C@H]2CCN3C2)ccn1 [Example 367]
C (EC1.5>25 μM)	B (Fold Activation <150%)			Cc1cc(-c2nc3c(cc2Cl)N2CC[C@@H](C2)N3C(=O)Nc2ccnc(OC[C@H](O)CO)n2)ccn1 [Example 96, (4S)-8-chloro-N-(2-((R)-2,3-dihydroxypropoxy)pyrimidin-4-yl)-7-(2-methylpyridin-4-yl)-3,4-dihydro-1,4-methanopyrido[2,3-b][1,4]diazepine-5(2H)-carboxamide]
C (EC1.5>25 μM)	B (Fold Activation <150%)			Cc1cc(-c2ccc3c(n2)N(C(=O)N2CCCCC2)[C@H]2CCN3C2)ccn1 [Example 151, ((4S)-7-(2-methylpyridin-4-yl)-3,4-dihydro-1,4-methanopyrido[2,3-b][1,4]diazepin-5(2H)-yl)(piperidin-1-yl)methanone]
	A (Fold activation ≧150%)			Cc1cc(-c2ccc3c(n2)N(C(=O)Nc2cnccn2)[C@H]2CCN3C2)cc(C)n1 [Example 135, (4S)-7-(2,6-dimethylpyridin-4-yl)-N-(pyrazin-2-yl)-3,4-dihydro-1,4-methanopyrido[2,3-b][1,4]diazepine-5(2H)-carboxamide]
		A (EC1.5<1 μM)	A (Fold activation ≧150%)	O=C(Nc1cnccn1)N1c2nc(N3CCOC(C(F)(F)F)C3)ccc2N2CC[C@H]1C2 (single isomer, unassigned) [Example 231]
B (EC1.5 1-25 μM)	A (Fold activation ≧150%)			CC(C)(CO)COc1cncc(NC(=O)N2c3nc(-c4cccc(C(F)(F)F)c4)c(Cl)cc3N3CC[C@H]2C3)n1 [Example 43, (4S)-8-chloro-N-(6-(3-hydroxy-2,2-dimethylpropoxy)pyrazin-2-yl)-7-(3-(trifluoromethyl)phenyl)-3,4-dihydro-1,4-methanopyrido[2,3-b][1,4]diazepine-5(2H)-carboxamide]
C (EC1.5>25 μM)	B (Fold Activation <150%)			Cc1cc(-c2nc3c(cc2Cl)N2CC[C@@H](C2)N3C(=O)Nc2cncc(OC[C@@H](O)CO)n2)ccn1 [Example 98, (4S)-8-chloro-N-(6-((S)-2,3-dihydroxypropoxy)pyrazin-2-yl)-7-(2-methylpyridin-4-yl)-3,4-dihydro-1,4-methanopyrido[2,3-b][1,4]diazepine-5(2H)-carboxamide]
A (EC1.5<1 μM)	A (Fold activation ≧150%)			O=C(Nc1ccnc(OC[C@H](O)CO)n1)N1c2nc(-c3cccc(C(F)(F)F)c3)ccc2N2CC[C@H]1C2 [Example 127, (4S)-N-(2-((R)-2,3-dihydroxypropoxy)pyrimidin-4-yl)-7-(3-(trifluoromethyl)phenyl)-3,4-dihydro-1,4-methanopyrido[2,3-b][1,4]diazepine-5(2H)-carboxamide]
